Test system: rat small-intestinal brush border membrane vesicles
Assay: Inhibitory effect on 33PO4 uptake into rat small-intestinal brush border membrane vesicles (rapid filtration method)
Assay type: biochemical
Details: 33PO4 uptake into rat small-intestinal BBMVs; test compound 1 µM; reacted for 60 seconds
Outline: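 Uptake of ^33PO4 was measured by rapid filtration and liquid scintillation counting of filter-retained vesicles, after quenching with ice-cold 110 mM NaCl/1 mM KH2PO4/10 mM HEPES pH 7.5. Vesicles were brush border membranes from the upper small intestine of female Wistar rats aged 4–5 weeks.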

SMILES	Rate of uptake inhibition (%) (1 µM)
COc1cccc(-c2cc(C(F)(F)F)ccc2NC(=O)C2=C(O)[C@@]3(C)CCCN3N(Cc3ccc(C#CCCCCO)c(F)c3F)C2=O)c1OC [Example 135]	90%
COc1cccc(-c2cc(C(F)(F)F)ccc2NC(=O)C2=C(O)[C@@]3(C)CCCN3N(Cc3ccc(C#CCOCCOCCOCCO)c(F)c3F)C2=O)c1OC [Example 136]	80%
COc1cccc(-c2cc(C(F)(F)F)ccc2NC(=O)C2=C(O)[C@@]3(C)CCCN3N(Cc3ccc(C#CCOCCO)c(F)c3F)C2=O)c1OC [Example 137]	92%
COc1cccc(-c2cc(C(F)(F)F)ccc2NC(=O)C2=C(O)[C@@]3(C)CCCN3N(Cc3ccc(C#CCCCO)c(F)c3F)C2=O)c1OC [Example 138]	93%
COc1cccc(-c2cc(C(F)(F)F)ccc2NC(=O)C2=C(O)[C@@]3(C)CCCN3N(Cc3ccc(C#CCOCCOCCO)c(F)c3F)C2=O)c1OC [Example 139]	88%
C[C@]12CCCN1N(Cc1ccc(CCCOCCCO)c(F)c1F)C(=O)C(C(=O)Nc1ccc(C(F)(F)F)cc1-c1ccc(C(F)(F)F)nc1)=C2O [Example 141]	83%
COc1cccc(-c2cc(C(F)(F)F)ccc2NC(=O)C2=C(O)[C@@]3(C)CCCN3N(Cc3ccc(CCCOCCOCCOCCO)c(F)c3F)C2=O)c1OC [Example 142]	76%
C[C@]12CCCN1N(Cc1c(F)cc(C#CCCCCOC[C@H](O)CO)cc1F)C(=O)C(C(=O)Nc1ccc(C(F)(F)F)cc1-c1ccc(C(F)(F)F)nc1)=C2O.[Na+] [Example 143]	71%
C[C@]12CCCN1N(Cc1c(F)cc(C#CCCOC[C@H](O)CO)cc1F)C(=O)C(C(=O)Nc1ccc(C(F)(F)F)cc1-c1ccc(C(F)(F)F)nc1)=C2O [Example 145]	78%
C[C@]12CCCN1N(Cc1c(Cl)cc(OCCN3CCOCC3)cc1Cl)C(=O)C(C(=O)Nc1cnc(C(F)(F)F)nc1-c1ccc(C(F)(F)F)nc1)=C2O.Cl [Example 146, (4aR)-1-[[2,6-Dichloro-4-(2-morpholin-4-ylethoxy)phenyl]methyl]-4-hydroxy-4a-methyl-2-oxo-N-[2-(trifluoromethyl)-4-[6-(trifluoromethyl)pyridin-3-yl]pyrimidin-5-yl]-6,7-dihyvdro-5H-pyrrolo[1,2-b]pyridazine-3-carboxamide hydrochloride]	71%
C[C@]12CCCN1N(Cc1c(Cl)cc(OCCN3CCOCC3)cc1Cl)C(=O)C(C(=O)Nc1ccc(C(F)(F)F)nc1-c1ccc(C(F)(F)F)nc1)=C2O.Cl [Example 148, (4aR)-1-[[2,6-Dichloro-4-(2-morpholin-4-ylethoxy)phenyl]methyl]-4-hydroxy-4a-methyl-2-oxo-N-[6-(trifluoromethyl)-2-16-(trifluoromethyl)pyridin-3-yl]pyridin-1-yl]-6,7-dihydro-5H-pyrrolo[1,2-bipyridazine-3-carboxamide hydrochloride]	75%
C[C@]12CCCN1N(Cc1ccc(OCCN3CCOCC3)c(Cl)c1)C(=O)C(C(=O)Nc1ccc(C(F)(F)F)cc1-c1ccc(C(F)(F)F)nc1)=C2O [Example 149, (4aR)-1-[[3-Chloro-4-(2-morpholin-4-ylethoxy)phepyl]methyl]-4-hydroxy-4a-methyl-2-oxo-N-[4-(trifluoromethyl)-2-[6-(trifluoromethyl)pyridin-3-yl]phenyl]-6,7-dihydro-5H-pyrrolo[1,2-b]pyridazine-3-carboxamide]	80%
COC(=O)COc1ccc(CN2C(=O)C(C(=O)Nc3ccc(C(F)(F)F)cc3-c3ccc(C(F)(F)F)nc3)=C(O)[C@@]3(C)CCCN23)c(F)c1F [Example 150, Methyl 2-[4-[[(4aR)-4-Hydroxy-4a-methyl-2-oxo-3-[[4-(trifluoromethyl)-2-[6-(trifluoromethyl)pyridin-3-yl]phenyl]carbamoy]-6,7-dihydro-5H-pyrrolor[1,2-b]pyridazin-1-yl]methyl]-2,3-difluorophenoxy] acetate]	87%
COc1cccc(-c2cc(C(F)(F)F)ccc2NC(=O)C2=C(O)[C@@]3(C)CCCN3N(Cc3ccc(OCc4ccncc4)c(F)c3F)C2=O)c1OC [Example 151]	92%
C[C@]12CCCN1N(Cc1c(F)cc(OCCCCCOC[C@@H](O)CO)cc1F)C(=O)C(C(=O)Nc1ccc(C(F)(F)F)cc1-c1ccc(C(F)(F)F)nc1)=C2O [Example 153]	73%
C[C@]12CCCN1N(Cc1c(F)cc(OCCCCCCOC[C@@H](O)CO)cc1F)C(=O)C(C(=O)Nc1ccc(C(F)(F)F)cc1-c1ccc(C(F)(F)F)nc1)=C2O [Example 154]	73%
C[C@]12CCCN1N(Cc1c(F)cc(OCCCCCCOC[C@H](O)CO)cc1F)C(=O)C(C(=O)Nc1ccc(C(F)(F)F)cc1-c1ccc(C(F)(F)F)nc1)=C2O [Example 155]	77%
COc1cccc(-c2cc(C(F)(F)F)ccc2NC(=O)C2=C(O)[C@@]3(C)CCCN3N(Cc3ccc(OC4CCOCC4)c(F)c3F)C2=O)c1OC [Example 158]	84%
COc1cccc(-c2cc(C(F)(F)F)ccc2NC(=O)C2=C(O)[C@@]3(C)CCCN3N(Cc3ccc(OC[C@H]4CCCO4)c(F)c3F)C2=O)c1OC [Example 159]	89%
C[C@]12CCCN1N(Cc1ccc(OC[C@H]3CCCO3)c(F)c1F)C(=O)C(C(=O)Nc1ccc(C(F)(F)F)cc1-c1ccc(C(F)(F)F)nc1)=C2O [Example 160]	77%

SMILES	Rate of uptake inhibition (%) (1 µM)
C[C@]12CCCN1N(Cc1ccc(OCCCCCO)c(F)c1F)C(=O)C(C(=O)Nc1ccc(C(F)(F)F)cc1-c1cc(C(F)(F)F)ncn1)=C2O [Example 162]	73%
C[C@]12CCCN1N(Cc1ccc(SCCN3CCOCC3)c(F)c1F)C(=O)C(C(=O)Nc1ccc(C(F)(F)F)cc1-c1ccc(C(F)(F)F)nc1)=C2O.Cl [Example 163, (4aR)-1-[[2,3-Difluoro-4-(2-morpholin-4-ylethylsulfanyl)phenyl]methyl]-4-hydroxy-4a-methyl-2-oxo-N-[4-(trifluoromethyl)-2-[6-(trifluoromethyl)pyridin-3-yl]phenyl]-6,7-dihydro-5H-pyrrolo[1,2-b]pyridazine-3-carboxamide hydrochloride]	79%
COC(=O)c1cc(F)c(CN2C(=O)C(C(=O)Nc3ccc(C(F)(F)F)cc3-c3ccc(C(F)(F)F)nc3)=C(O)[C@@]3(C)CCCN23)c(F)c1 [Example 165, Methyl 4-[[(4aR)-4-Hydroxy-4a-methyl-2-oxo-3-[[4-(trifluoromethyl)-2-[6-(trifluoromethyl)pyridin-3-yl]phenyl]carbamoyl]-6,7-dihydro-5H-pyrrolo[1,2-b]pyridazin-1 - yl]methyl]-3,5-difluorobenzoate]	75%
C[C@]12CCCN1N(Cc1ccc(Br)cc1F)C(=O)C(C(=O)Nc1cc(F)c(Br)c(F)c1)=C2O [Example 166, (4aR)-N-(4-Bromo-3,5-difluorophenyl)-1-[(4-bromo-2-fluorophenyl)methyl]-4-hydroxy-4a-methyl-2-oxo-6,7-dihydro-5H-pyrrolo[1,2-b]pyridazine-3-carboxamide]	73%
C[C@]12CCCN1N(Cc1cccc(OC(F)F)c1)C(=O)C(C(=O)Nc1ccc(C(F)(F)F)cc1-c1ccc(C(F)(F)F)nc1)=C2O [Example 167]	73%
C[C@]12CCCN1N(Cc1ccccc1Cl)C(=O)C(C(=O)Nc1ccc(C(F)(F)F)cc1-c1ccc(C(F)(F)F)nc1)=C2O [Example 168]	72%
C[C@]12CCCN1N(Cc1cccc(Cl)c1)C(=O)C(C(=O)Nc1ccc(C(F)(F)F)cc1-c1ccc(C(F)(F)F)nc1)=C2O [Example 169]	73%
C[C@]12CCCN1N(Cc1ccc(F)c(F)c1)C(=O)C(C(=O)Nc1ccc(C(F)(F)F)cc1-c1ccc(C(F)(F)F)nc1)=C2O [Example 170]	73%
C[C@]12CCCN1N(Cc1cc(F)cc(F)c1)C(=O)C(C(=O)Nc1ccc(C(F)(F)F)cc1-c1ccc(C(F)(F)F)nc1)=C2O [Example 171]	78%
C[C@]12CCCN1N(Cc1cc(F)ccc1F)C(=O)C(C(=O)Nc1ccc(C(F)(F)F)cc1-c1ccc(C(F)(F)F)nc1)=C2O [Example 172]	72%
C[C@]12CCCN1N(Cc1ccc(F)cc1F)C(=O)C(C(=O)Nc1ccc(C(F)(F)F)cc1-c1ccc(C(F)(F)F)nc1)=C2O [Example 173]	73%
C[C@]12CCCN1N(Cc1cccc(F)c1Cl)C(=O)C(C(=O)Nc1cc(F)c(Br)c(F)c1)=C2O [Example 174]	87%
COc1cccc(CN2C(=O)C(C(=O)Nc3ccc(C(F)(F)F)cc3-c3ccc(C(F)(F)F)nc3)=C(O)[C@@]3(C)CCCN23)c1OC [Example 175]	85%
COc1ccc(OC)c(CN2C(=O)C(C(=O)Nc3ccc(C(F)(F)F)cc3-c3ccc(C(F)(F)F)nc3)=C(O)[C@@]3(C)CCCN23)c1 [Example 176]	75%
C[C@]12CCCN1N(Cc1cccc(OC(F)F)c1)C(=O)C(C(=O)Nc1ccc(C(F)(F)F)cc1-c1cc(C(F)(F)F)ncn1)=C2O [Example 177]	85%
C[C@]12CCCN1N(Cc1ccccc1C#N)C(=O)C(C(=O)Nc1ccc(C(F)(F)F)cc1-c1cc(C(F)(F)F)ncn1)=C2O [Example 178]	81%
C[C@]12CCCN1N(Cc1cccc(C#N)c1)C(=O)C(C(=O)Nc1ccc(C(F)(F)F)cc1-c1cc(C(F)(F)F)ncn1)=C2O [Example 179]	83%
C[C@]12CCCN1N(Cc1ccccc1Cl)C(=O)C(C(=O)Nc1ccc(C(F)(F)F)cc1-c1cc(C(F)(F)F)ncn1)=C2O [Example 180]	75%
C[C@]12CCCN1N(Cc1cccc(Cl)c1)C(=O)C(C(=O)Nc1ccc(C(F)(F)F)cc1-c1cc(C(F)(F)F)ncn1)=C2O [Example 181]	85%

Source: patent EP3928779A1 (Chugai Seiyaku Kabushiki Kaisha, priority 2014, dated 2016)
